System: HCV 1b-377-neo replicon cells
Experiment: HCV replicon assay, HCV 1b-377-neo replicon cells (1b FRET)
Format: cell-based, Hepatitis C virus genotype 1b
Settings: Hepatitis C virus, HCV 1b-377-neo replicon cells; HCV 1b genotype; read-out: EC50 range against HCV 1b (Table 2, Range)
Outline: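 Compounds were tested in genotype 1b subgenomic replicon cells carrying a neomycin marker, alongside a matched replicon line with an NS5A Y2065H substitution that confers resistance to a reference NS5A inhibitor.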

| Structure (SMILES) | EC50 [nM] |
| --- | --- |
| COC(=O)N[C@@H](Cc1c[nH]c2ccccc12)C(=O)N1CCC[C@H]1c1ncc(-c2ccc(-c3ccc(-c4cnc([C@@H]5CCCN5C(=O)[C@@H](NC(=O)OC)C(C)C)[nH]4)cc3)cc2)[nH]1 [cj-99, methyl ((1S)-1-(((2S)-2-(5-(4′-(2-((2S)-1-((2S)-3-(1H-indol-3-yl)-2-((methoxycarbonyl)amino)propanoyl)-2-pyrrolidinyl)-1H-imidazol-5-yl)-4-biphenylyl)-1H-imidazol-2-yl)-1-pyrrolidinyl)carbonyl)-2-methylpropyl)carbamate] | 0.001 to 0.999 |
| COC(=O)N[C@@H](Cc1cncn1C)C(=O)N1CCC[C@H]1c1ncc(-c2ccc(-c3ccc(-c4cnc([C@@H]5CCCN5C(=O)[C@@H](NC(=O)OC)C(C)C)[nH]4)cc3)cc2)[nH]1 [cj-46, methyl ((1S)-1-(((2S)-2-(5-(4′-(2-((2S)-1-((2S)-2-((methoxycarbonyl)amino)-3-(1-methyl-1H-imidazol-5-yl)propanoyl)-2-pyrrolidinyl)-1H-imidazol-5-yl)-4-biphenylyl)-1H-imidazol-2-yl)-1-pyrrolidinyl)carbonyl)-2-methylpropyl)carbamate] | 0.001 to 0.999 |
| COC(=O)N[C@H](C(=O)N1CCC[C@H]1c1ncc(-c2ccc(-c3ccc(-c4cnc([C@@H]5CCCN5C(=O)[C@@H](NC5=NCCN5)C(C)C)[nH]4)cc3)cc2)[nH]1)C(C)C [cj-11e, methyl ((1S)-1-(((2S)-2-(5-(4′-(2-((2S)-1-(N-(4,5-dihydro-1H-imidazol-2-yl)-L-valyl)-2-pyrrolidinyl)-1H-imidazol-5-yl)-4-biphenylyl)-1H-imidazol-2-yl)-1-pyrrolidinyl)carbonyl)-2-methylpropyl)carbamate] | 1000 to 10000 |
| COC(=O)N[C@@H]1CCCC[C@H]1C(=O)N1CCC[C@H]1c1ncc(-c2ccc(-c3ccc(-c4cnc([C@@H]5CCCN5C(=O)[C@@H]5CCCC[C@H]5NC(=O)OC)[nH]4)cc3)cc2)[nH]1 [cj-139, dimethyl (4,4′-biphenyldiylbis(1H-imidazole-5,2-diyl(2S)-2,1-pyrrolidinediylcarbonyl(1R,2R)-2,1-cyclohexanediyl))biscarbamate] | 1 to 99 |
| CCN(CC)[C@@H](C(=O)N1CCC[C@H]1c1ncc(-c2ccc(-c3ccc(-c4cnc([C@@H]5CCCN5C(=O)[C@@H](c5ccccc5)N(CC)CC)[nH]4)cc3)cc2)[nH]1)c1ccccc1 [Example 21, (1R,1′R)-2,2′-(4,4′-biphenyldiylbis(1H-imidazole-5,2-diyl(2S)-2,1-pyrrolidinediyl))bis(N,N-diethyl-2-oxo-1-phenylethanamine)] | 0.001 to 0.999 |
| CCN(C)[C@@H](C(=O)N1CCC[C@H]1c1ncc(-c2ccc(-c3ccc(-c4cnc([C@@H]5CCCN5C(=O)[C@@H](NC(=O)OC)C(C)C)[nH]4)cc3)cc2)[nH]1)c1ccccc1 [Example M78, methyl ((1S)-1-(((2S)-2-(5-(4′-(2-((2S)-1-((2R)-2-(ethyl(methyl)amino)-2-phenylacetyl)-2-pyrrolidinyl)-1H-imidazol-5-yl)-4-biphenylyl)-1H imidazol-2-yl)-1-pyrrolidinyl)carbonyl)-2-methylpropyl)carbamate] | 1 to 99 |
| COC(=O)N[C@@H](Cc1c[nH]cn1)C(=O)N1CCC[C@H]1c1ncc(-c2ccc(-c3ccc(-c4cnc([C@@H]5CCCN5C(=O)[C@H](Cc5c[nH]cn5)NC(=O)OC)[nH]4)cc3)cc2)[nH]1 [cj-131, methyl ((1S)-2-((2S)-2-(5-(4′-(2-((2S)-1-((2S)-3-(1H-imidazol-4-yl)-2-((methoxycarbonyl)amino)propanoyl)-2-pyrrolidinyl)-1H-imidazol-5-yl)-4-biphenylyl)-1H-imidazol-2-yl)-1-pyrrolidinyl)-1-(1H-imidazol-4-ylmethyl)-2-oxoethyl)carbamate] | 1 to 99 |

— patent US8574563B2 (Bristol-Myers Squibb Company, priority 2006, dated 2013)
